From US7300770B2, “Detection of microbe contamination on elastomeric articles” (Kimberly-Clark Worldwide, Inc., priority 2004, dated 2007)

How the values were obtained:
E. coli = experiment: Cyclodextrin and Reichardt's dye coated towel exposed to E. coli
Protocol: A SCOTT® paper towel was first coated with hydroxypropyl-beta-cyclodextrin (from Cerestar International, Hammond, Ind., USA) in solution in water (1 gram in 20 milliliters) by dipping and air-drying at ambient temperature. After drying, the coated paper towel was treated with a solution of Reichardt's dye in isopropanol (1 weight percent) and allowed to air-dry. The dried towel was a purple/blue in color. The present inventors believe that the cyclodextrin hindered the crystallization of the dye, thus allowing a more vivid color of the dye to occur on the paper towel. This coated towel was used in a test with gram-negative bacteria (E. coli) and found to turn colorless in less than 5 seconds when an aliquot of 100 microliters of media containing 10,000 CFU per milliliter was applied to the towel. […] The inventors believe that by careful use of a coating (e.g. cyclodextrin), a monolayer coating of the dye may be formed.

S. aureus = experiment: Dye coatings from different solvents on towels exposed to S. aureus
Protocol: The behavior of Reichardt's dye coatings made using various different solvents was evaluated. Solutions of Reichardt's dye in acetonitrile, isopropanol, and xylenes were prepared and the solutions were used to coat SCOTT® kitchen rolls towels and allowed to air-dry. […] Though the color of the dye was less intense than that seen with acetonitrile, the color change due to microbial contamination was still readily observed.

Question: What does the source list for `[O-]c1c(-c2ccccc2)cc(-[n+]2c(-c3ccccc3)cc(-c3ccccc3)cc2-c2ccccc2)cc1-c1ccccc1` [Reichardt's dye, 4-(2,4,6-triphenylpyridinium-1-yl)-2,6-diphenylphenolate]?
Answer: Time to turn colorless (E. coli; 100 microliters of media containing 10,000 CFU per milliliter): less than 5 seconds; Time to color change (E. coli; 500 CFU per milliliter): ≤ 15 s; Bacteria concentration down to which color change occurred (E. coli; hydroxypropyl-beta-cyclodextrin coated towel): 500 CFU per milliliter; Color change of coating where bacterial suspension was placed (S. aureus; acetonitrile solution-based coating): rapid color change; Color change of coating where bacterial suspension was placed (S. aureus; isopropanol and xylenes coatings): No visible color change
